Legend:
[1] = Compound stability in human liver microsomes; type: in vitro ADME; conditions: for half-life at 5 μM: human liver microsomes 0.5 mg protein/mL, compound 5 μM, NADPH 1.0 mM, pH 7.4, 37° C., read-out: Human T1/2; for CLint scaled at 5 μM: liver microsomes, pH 7.4, in vivo CLint extrapolated from human liver microsome incubation
Description: (§1) The LC/MS/MS system used in the analysis consists of an Agilent 1200 Series vacuum degasser, binary pump, well-plate autosampler, thermostatted column compartment, the Agilent G6430 Triple Quadrupole Mass Spectrometer with an electrosprayionization (ESI) source. Quantitative analysis was carried out using MRM mode. The parameters for MRM transitions are in the Table A.
(§2) An Agilent XDB-C18, 2.1×30 mm, 3.5 μM column was used for the analysis. 5 μL of the samples were injected. Analysis condition: The mobile phase was 0.1% formic acid in water (A) and 0.1% formic acid in methanol (B). The flow rate was 0.4 mL/min. And the gradient of Mobile phase was in the Table B.
(§3) Alternatively, an Agilent 6330 series LC/MS/MS spectrometer equipped with G1312A binary pumps, a G1367A autosampler and a G1314C UV detector were used in the analysis. An ESI source was used on the LC/MS/MS spectrometer. The analysis was done in positive ion mode as appropriate and the MRM transition for each analyte was optimized using standard solution. A Capcell MP-C18 100×4.6 mm I.D., 5 uM column (Phenomenex, Torrance, Calif., USA) was used during the analysis. The mobile phase was 5 mM ammonia acetate, 0.1% MeOH in water (A): 5 mM ammonia acetate, 0.1% MeOH in acetonitrile (B) (70/30, v/v). The flow rate was 0.6 mL/min. Column was maintained at ambient temperature. 20 μL of the samples were injected.
(§4) Human or rat liver microsomes incubations were conducted in duplicate in polypropylene tubes. The typical incubation mixtures consisted of human or rat liver microsomes (0.5 mg protein/mL), compounds of interest (5 μM) and NADPH (1.0 mM) in a total volume of 200 μL potassium phosphate buffer (PBS, 100 mM, pH 7.4). Compounds were dissolved in DMSO and diluted with PBS such that the final concentration of DMSO was 0.05%. The enzymatic reactions were commenced with the addition of […] after a 3-min preincubation and incubated in a water bath open to the air at 37° C. Reactions were terminated at various time points (0, 5, 10, 15, 30, 60 min) by adding equal volume of ice-cold acetonitrile. The samples were stored at […] until LC/MS/MS assays.
(§5) The concentrations of compounds in the incubation mixtures of human or rat liver microsomes were determined by a LC/MS/MS method. The ranges of the linearity in the concentration range were determined for each tested compounds.
(§6) A parallel incubation was performed using denatured microsomes as the negative control, and reactions were terminated at various time points (0, 15, 60 min) after incubation at 37° C.
(§7) Dextromethorphan (70 μM) was selected as the positive control, and reactions were terminated at various time points (0, 5, 10, 15, 30, 60 min) after incubation at 37° C. Both positive and negative control samples were included in each assay to ensure the integrity of the microsomal incubation system.
(§8) The concentrations of compounds in human or rat liver microsome incubations were plotted as a percentage of the relevant zero time point control for each reaction. The in vivo CLint were extrapolated (ref.: Naritomi, Y.; Terashita, S.; Kimura, S.; Suzuki, A.; Kagayama, A.; and Sugiyama, Y.; Prediction of human hepatic clearance from in vivo animal experiments and in vitro metabolic studies with liver microsomes from animals and humans. Drug Metab. Dispos., 2001, 29: 1316-1324).

[2] = Compound stability in rat liver microsomes; type: in vitro ADME; conditions: for CLint scaled at 5 μM: liver microsomes, pH 7.4, in vivo CLint extrapolated from rat liver microsome incubation; for half-life at 5 μM: rat liver microsomes 0.5 mg protein/mL, compound 5 μM, NADPH 1.0 mM, pH 7.4, 37° C., read-out: Rat T1/2
Description: as §1, §2, §3, §4, §5, §6, §7, §8

[3] = Pharmacokinetics after intravenous and oral administration in rats; type: in vivo; conditions: for Clearance (CL) after iv dosing / AUC(0-t) / half-life / Vd: dose 1 mg/kg (Ex. 9: 0.6, Ex. 18: 0.5, Ex. 50: 0.96 mg/kg), iv dosing; for AUC(0-t) / half-life / Vd / bioavailability: rat, plasma; for Vd: read-out: Vss; for bioavailability: oral (generally 5 or 10 mg/kg) versus iv dosing, read-out: F (oral bioavailability)
Description: as §1, §2, §3
The compounds disclosed herein are assessed in pharmacokinetic studies in mice, rats, dogs or monkeys. The compounds are administered as a water solution, 2% HPMC+1% TWEEN®80 in water solution, 5% DMSO+5% solutol in saline, 4% MC suspension or capsule. For the intravenous administration, the animals are generally given at about 0.5, 0.6, 1 or 2 mg/kg dose. For the oral (p.o.) dosing, mice and rats are generally given 5 or 10 mg/kg dose, and dogs and monkeys are generally given 10 mg/kg dose. The blood samples (0.3 mL) are drawn at 0.25, 0.5, 1.0, 2.0, 3.0, 4.0, 6.0, 8.0, 12 and 24 h time points or 0.083, 0.25, 0.5, 1.0, 2.0, 4.0, 6.0, 8.0 and 24 h time points and centrifuged at 3,000 or 4000 rpm for 2 to 10 min. The plasma solutions are collected, and stored at […] until analyzed by LC/MS/MS as described above.

Row | SMILES | half-life at 5 μM [1] [h] | CLint scaled at 5 μM [1] [mL/min/kg] | CLint scaled at 5 μM [2] [mL/min/kg] | half-life at 5 μM [2] [min] | Clearance (CL) after iv dosing [3] [mL/min/kg] | AUC(0-t) [3] [ng·h/mL] | half-life [3] [min] | Vd [3] [L/kg] | bioavailability [3] [%]
1 | CCC1CN(c2ccc(C#N)cn2)CCC1Nc1nc(Nc2ccn3c(C)nnc3c2)ncc1Cl (stereo not shown) [Example 17, 6-(4-((5-chloro-2-((3-methyl-[1,2,4]triazolo[4,3-a]pyridin-7-yl)amino)pyrimidin-4-yl)amino)-3-ethylpiperidin-1-yl)nicotinonitrile] | 0.734 | 39.5 | 302 | 8.22 | 17.8 | 949 | 36 | 0.67 | 48.2
2 | N#Cc1ccc(N2CCC(Nc3nc(Nc4cnn5ccnc5c4)ncc3Cl)CC2)nc1 [Example 18, 6-(4-((5-chloro-2-(imidazo[1,2-b]pyridazin-7-ylamino)pyrimidin-4-yl)amino)piperidin-1-yl)nicotinonitrile] | – | – | – | – | 13.2 | 638 | 35.4 | 0.5 | 79.4
3 | CCC1CN(c2ccc(C#N)nn2)CCC1N(C)c1nc(Nc2ccn3c(C)cnc3c2)ncc1Cl (stereo not shown) [Example 11, 6-(4-((5-chloro-2-((3-methylimidazo[1,2-a]pyridin-7-yl)amino)pyrimidin-4-yl)(methyl)amino)-3-ethylpiperidin-1-yl)pyridazine-3-carbonitrile] | 5.51 | 5.26 | 0.34 | 5050 | – | – | – | – | –
4 | CCC1CN(c2ccc(C#N)nn2)CCC1Nc1nc(Nc2ccn3cnnc3c2)ncc1Cl (stereo not shown) [Example 7, 6-(4-((2-([1,2,4]triazolo[4,3-a]pyridin-7-ylamino)-5-chloropyrimidin-4-yl)amino)-3-ethylpiperidin-1-yl)pyridazine-3-carbonitrile] | 2.47 | 11.7 | 112 | 22.2 | – | – | – | – | –
5 | CCC1CN(c2ccc(C#N)cn2)CCC1Nc1nc(Nc2ccn3ccnc3c2)ncc1Cl (stereo not shown) [Example 6, 6-(4-((5-chloro-2-(imidazo[1,2-a]pyridin-7-ylamino)pyrimidin-4-yl)amino)-3-ethylpiperidin-1-yl)nicotinonitrile] | – | – | – | – | 6.33 | 2690 | 283 | 0.76 | 71
6 | CCC1CN(c2ccc(C#N)cn2)CCC1Nc1nc(Nc2ccn3cnnc3c2)ncc1Cl (stereo not shown) [Example 5, 6-(4-((2-([1,2,4]triazolo[4,3-a]pyridin-7-ylamino)-5-chloropyrimidin-4-yl)amino)-3-ethylpiperidin-1-yl)nicotinonitrile] | – | – | – | – | 7.17 | 2340 | 265 | 0.56 | 42.7
7 | CCC1CN(c2ccc(C#N)cn2)CCC1Nc1nc(Nc2ccn3c(C(C)(C)O)nnc3c2)ncc1Cl (stereo not shown) [Example 41] | 3.31 | 8.8 | 57.9 | 42.9 | – | – | – | – | –

Second part, the compound after the results:

Row | half-life at 5 μM [1] [h] | CLint scaled at 5 μM [1] [mL/min/kg] | CLint scaled at 5 μM [2] [mL/min/kg] | half-life at 5 μM [2] [min] | Clearance (CL) after iv dosing [3] [mL/min/kg] | AUC(0-t) [3] [ng·h/mL] | half-life [3] [min] | Vd [3] [L/kg] | bioavailability [3] [%] | SMILES
8 | 0.367 | 78.9 | 834 | 2.98 | – | – | – | – | – | CCC1CN(c2ccc(C#N)nn2)CCC1Nc1nc(Nc2ccn3c(C4CC4)cnc3c2)ncc1Cl (stereo not shown) [Example 15, 6-(4-((5-chloro-2-((3-cyclopropylimidazo[1,2-a]pyridin-7-yl)amino)pyrimidin-4-yl)amino)-3-ethylpiperidin-1-yl)pyridazine-3-carbonitrile]
9 | 78.7 | 0.4 | 13.2 | 188 | 17.5 | 1460 | 32.3 | 0.688 | 4.5 | CC(C)(O)c1nc2cc(Nc3ncc(Cl)c(NC4CCN(c5ccc(C#N)nn5)CC4F)n3)ccn2n1 (stereo not shown) [Example 88, 6-(4-((5-chloro-2-((2-(2-hydroxypropan-2-yl)-[1,2,4]triazolo[1,5-a]pyridin-7-yl)amino)pyrimidin-4-yl)amino)-3-fluoropiperidin-1-yl)pyridazine-3-carbonitrile]
10 | 0.878 | 33 | 76.5 | 32.5 | 10.8 | 1540 | 36 | 0.56 | 79.6 | Cc1nc2cc(Nc3ncc(Cl)c(NC4CCN(c5ccc(C#N)nn5)CC4)n3)ccc2n1C [Example 49, 6-(4-((5-chloro-2-((1,2-dimethyl-1H-benzo[d]imidazol-5-yl)amino)pyrimidin-4-yl)amino)piperidin-1-yl)pyridazine-3-carbonitrile]
11 | 6.47 | 4.5 | 11.7 | 213 | – | – | – | – | – | Cc1cn2c(C)cnc2cc1Nc1ncc(Cl)c(NC2CCN(c3ccc(C#N)nn3)CC2)n1 [Example 22, 6-(4-((5-chloro-2-((3,6-dimethylimidazo[1,2-a]pyridin-7-yl)amino)pyrimidin-4-yl)amino)piperidin-1-yl)pyridazine-3-carbonitrile]
12 | – | – | – | – | 11.5 | 1460 | 55.8 | 0.83 | 47.8 | Cc1cn2ncc(Nc3ncc(Cl)c(NC4CCN(c5ccc(C#N)cn5)CC4)n3)cc2n1 [Example 37, 6-(4-((5-chloro-2-((2-methylimidazo[1,2-b]pyridazin-7-yl)amino)pyrimidin-4-yl)amino)piperidin-1-yl)nicotinonitrile]
13 | – | – | – | – | 19.7 | 844 | 63 | 1.68 | 63 | Cc1cnc2cc(Nc3ncc(Cl)c(NC4CCN(c5ccc(C#N)cn5)CC4)n3)ccn12 [Example 23, 6-(4-((5-chloro-2-((3-methylimidazo[1,2-a]pyridin-7-yl)amino)pyrimidin-4-yl)amino)piperidin-1-yl)nicotinonitrile]
14 | 0.527 | 54.9 | 73.1 | 34 | – | – | – | – | – | CC(O)Cn1cnc2ncc(Nc3ncc(Cl)c(NC4CCN(c5ccc(C#N)cn5)CC4)n3)cc21 (stereo not shown) [Example 51, 6-(4-((5-chloro-2-((1-(2-hydroxypropyl)-1H-imidazo[4,5-b]pyridin-6-yl)amino)pyrimidin-4-yl)amino)piperidin-1-yl)nicotinonitrile]

Reference: patent US10683297B2 (Sunshine Lake Pharma Co., Ltd., priority 2017, dated 2020)
